Results taken from US8685439B2, “Method for the treatment and prevention of eyelid swelling” (Aciex Therapeutics, Inc., priority 2006, dated 2014).

What was measured:
morning eyelid swelling [1] = experiment: Treatment of morning eyelid swelling (eyelid edema), eyelid volume by 3D scanner, treated eye vs untreated eye; type: in vivo, human; conditions: for reduction of morning eyelid swelling (result in words): topical to one eye, other eye untreated, 3D scanner
Description: In this study, the efficacy of naphazoline 0.1% ophthalmic solution was evaluated for treatment for eyelid edema. The eyelid volume for 11 subjects participating in the study was recorded in the afternoon of Day 1 and again upon arrival to the clinic the following morning (Day 2). […] The natural progression of morning eyelid swelling, as measured using 3D scanning technology is depicted in FIG. 10. The increase ranged from 14 mm^3 to 659 mm^3. Subjects were then dosed with naphazoline 0.1% (vasoconstrictor) in the right eye and eyelid volume was assessed at 5, 10, 15, 30, and 120 minutes following treatment using a 3-D scanner. […] A summary of all the patient data is depicted if FIG. 3L.
In a preliminary study with a similar design to that described above, NaCl 5% ophthalmic solution was evaluated as a potential treatment for eyelid edema. […] Eyelid swelling was assessed using a 3-D scanner at 5, 10, 15, 20, 30, and 120 minutes post-treatment. […] In one subject, this reduction was pronounced and was present through the 120 minute assessment time point. In the remaining three patients, treatment was not effective.
A total of 6 subjects (male, between the ages of 25 and 29) were evaluated. At the start of the study, five (5) baseline scans were performed per subject and eye using a 3D scanner. The next day, subjects were asked to five (5) scans of each eye, identical to Visit 1, were then taken.
Subjects received the 2 drops (40 μl each) of the combination treatment, with one minute apart each drop in one eye and no treatment in the other eye. Five (5) scans of each eye were taken, identical to Visit 1, 20 minutes after second drop instillation. Subjects were asked to grade their eyelid swelling post treatment. Digital photos were also taken at baseline and at 20 minutes post treatment.

morning eyelid swelling [2] = experiment: as above; type: in vivo, human; conditions: topical to one eye, other eye untreated

OC[C@@H](O)[C@@H](O)[C@H](O)[C@H](O)CO [mannitol 12.5% solution, mannitol]
reduction of morning eyelid swelling (result in words) (morning eyelid swelling [1]): did reduce morning eyelid swelling

[Cl-].[Na+] [NaCl 5% ophthalmic solution, sodium chloride]
reduction of morning eyelid swelling (result in words) (morning eyelid swelling [2]): some efficacy
patients in whom treatment was not effective (morning eyelid swelling [1]; 6 subjects): three
mean change from baseline versus negative controls (morning eyelid swelling [1]; FIG. 4G): numerically superior to negative controls, though the differences were not statistically significant
subjects with pronounced reduction in eyelid swelling (morning eyelid swelling [1]; present through the 120 minute assessment time point, 6 subjects): one
patients with a reduction in eyelid swelling (morning eyelid swelling [1]; through 15 minutes post-instillation, 6 subjects): Three
reduction of morning eyelid swelling (result in words) (morning eyelid swelling [1]): caused a reduction of eyelid swelling in several patients

CNC[C@H](O)c1cccc(O)c1 [0.25% phenylephrine formulation, phenylephrine, reference compound]
reduction of morning eyelid swelling (result in words) (morning eyelid swelling [1]): did reduce morning eyelid swelling

c1ccc2c(CC3=NCCN3)cccc2c1 [naphazoline 0.1%, naphazoline, reference compound]
reduction of morning eyelid swelling (result in words) (morning eyelid swelling [2]; listed as naphazoline 0.5% solution): caused a reduction of eyelid swelling in most subjects
reduction of morning eyelid swelling (result in words) (morning eyelid swelling [1]): demonstrated efficacy
subjects with greater decrease in eyelid volume in treatment eye than non-treatment eye (morning eyelid swelling [1]; up to the 30 minute timepoint): 9 out of 11
subjects with greater decrease in eyelid volume in treatment eye than non-treatment eye (morning eyelid swelling [1]; up to the 120 minute timepoint): 7 out of 11
